Measured values from ChEMBL document CHEMBL1153613, “Synthesis and reactivity of novel gamma-phosphate modified ATP analogues” (Bioorg Med Chem Lett, 2009).
The source made the active and inactive calls. The calls are words filed in the database; no cut-off is given here.

These molecules were tested against Cyclin-dependent kinase 2 (Homo sapiens) (UniProt P24941) (assay: Effect on wild type recombinant CDK2/cyclin E1 assessed as p27kip1 phosphorylation after 1 hr by immunoblot analysis).

Row | Activity | Structure (SMILES)
1 | Active | [N-]=[N+]=Nc1ccc(NP(=O)(O)OP(=O)(O)OP(=O)(O)OC[C@H]2O[C@@H](n3cnc4c(N)ncnc43)[C@H](O)[C@@H]2O)cc1
2 | Active | [N-]=[N+]=NCCOP(=O)(O)OP(=O)(O)OP(=O)(O)OC[C@H]1O[C@@H](n2cnc3c(N)ncnc32)[C@H](O)[C@@H]1O
3 | Active | C#CCCNP(=O)(O)OP(=O)(O)OP(=O)(O)OC[C@H]1O[C@@H](n2cnc3c(N)ncnc32)[C@H](O)[C@@H]1O
4 | Active | [N-]=[N+]=NCCOCCOCCOCCNP(=O)(O)OP(=O)(O)OP(=O)(O)OC[C@H]1O[C@@H](n2cnc3c(N)ncnc32)[C@H](O)[C@@H]1O
5 | Active | C#CCNP(=O)(O)OP(=O)(O)OP(=O)(O)OC[C@H]1O[C@@H](n2cnc3c(N)ncnc32)[C@H](O)[C@@H]1O

More lines, now with the values behind:

Row | Structure (SMILES) | Activity
6 | C#CCCCOP(=O)(O)OP(=O)(O)OP(=O)(O)OC[C@H]1O[C@@H](n2cnc3c(N)ncnc32)[C@H](O)[C@@H]1O | Active
7 | [N-]=[N+]=NCCCCCCNP(=O)(O)OP(=O)(O)OP(=O)(O)OC[C@H]1O[C@@H](n2cnc3c(N)ncnc32)[C@H](O)[C@@H]1O | Active
8 | C=CCNP(=O)(O)OP(=O)(O)OP(=O)(O)OC[C@H]1O[C@@H](n2cnc3c(N)ncnc32)[C@H](O)[C@@H]1O | Active
9 | C#CCCCNP(=O)(O)OP(=O)(O)OP(=O)(O)OC[C@H]1O[C@@H](n2cnc3c(N)ncnc32)[C@H](O)[C@@H]1O | Active
